{"source": "paper PMC10056643", "about": "“New Bioactive Peptides from the Mediterranean Seagrass Posidonia oceanica (L.) Delile and Their Impact on Antimicrobial Activity and Apoptosis of Human Cancer Cells” (International Journal of Molecular Sciences, 2023)", "key": {"HepG2 cells": {"tested_on": "HepG2 cells", "format": "cell-based, human", "details": "for Activity on HepG2 cells (in words): HepG2, discussion statement; for IC50 (cell viability): 24 h", "method": "HepG2 human hepatic cancer cells (taken from laboratory stocks) were routinely grown in high glucose–DMEM medium with the addition of 10% fetal calf serum (Life Technologies, Carlsbad, CA, USA) and antibiotics (100 U/mL penicillin and 100 μg/mL streptomycin; Life Technologies), at 37 °C in a 5% CO2 atmosphere.\nFor IC50 determination, cells undergoing exponential growth were seeded at a concentration of 5500/well in 96-well plates, allowed to adhere overnight, and then grown in control conditions or exposed to different concentrations of natural and synthetic peptides for 24 h. The number of viable cells was determined through the trypan blue exclusion test. The cell viability ratio in each experimental condition was determined as the ratio between unstained treated cells and controls, and the half maximal inhibitory concentrations (IC50) for peptides #7, #3d, and #7d were evaluated using the CompuSyn software."}, "S. aureus ATCC 25923": {"tested_on": "S. aureus ATCC 25923", "format": "cell-based, Staphylococcus aureus", "excerpt": "(§1) Four bacterial strains and one fungal strain were employed in this study: S. aureus ATCC 25923, P. aeruginosa ATCC 15442, E. coli ATCC 25922, E. faecalis ATCC 29212, and C. albicans ATCC 10231. The media used for microbiological assays were Tryptic Soy Broth (TSB, Sigma-Aldrich, Merck-Life Sciences S.r.l., Milan, Italy), Tryptic Soy Agar (TSA), Mueller Hinton II (Sigma-Aldrich, Merck-Life Sciences S.r.l., Milan, Italy), and Sabouraud medium for the yeast strain.\n(§2) Polypeptide-enriched extracts derived from green leaves and rhizomes of P. oceanica were lyophilized and resuspended in ultrapure water in order to obtain protein concentrations of 30 μg/mL and 26 μg/mL, respectively. The MIC values of the extracts were assessed through a previously described micro-method based on serial dilution (1:2) of the extracts, using Mueller Hinton II (MH II) and Sabouraud (for C. albicans) media in 96-well microplates and starting from 50% v/v to 1.5% v/v for a final volume equal to 100 μL. A microbial suspension of 10 μL (5 × 10^6 CFU/mL) derived from a bacterial culture grown at 37 °C for 24 h on Tryptic Soy Agar (TSA) in 5 mL of NaCl 0.9%, whose turbidity was similar to the 0.5 McFarland standard, was added to a 96-well plate followed by incubation at 37 °C for 24 h. […] In addition, a positive growth control (broth with bacterial inoculum to compare the growth of the cells with samples) and a sample control (extract solution without bacterial inoculum to verify the absorbance of the samples at various tested concentrations) were also included.\n(§3) The same procedure and media were also used to evaluate the antimicrobial activity of synthetic peptides #2, #3, #5, and #7, as well as of their derivatives. In particular, the synthetic peptides and their derivatives were dissolved in ultrapure water with the goal of achieving a stock solution of 5 mg/mL. Work solutions of 250 μg/mL of each synthetic peptides and derivatives were prepared in MH II and Sabouraud, being tested in 96-well microplates after serial dilution (1:2). Each assay was performed in triplicate."}, "P. aeruginosa ATCC 15442 [1]": {"tested_on": "P. aeruginosa ATCC 15442", "format": "cell-based, Pseudomonas aeruginosa", "excerpt": "as §1, §2, §3"}, "E. coli ATCC 25922": {"tested_on": "E. coli ATCC 25922", "format": "cell-based, Escherichia coli", "excerpt": "as §1, §2, §3"}, "C. albicans ATCC 10231": {"tested_on": "C. albicans ATCC 10231", "format": "cell-based, Candida albicans", "excerpt": "as §1, §2, §3"}, "E. faecalis ATCC 29212": {"tested_on": "E. faecalis ATCC 29212", "format": "cell-based, Enterococcus faecalis", "excerpt": "as §1, §2, §3"}, "P. aeruginosa ATCC 15442 [2]": {"tested_on": "P. aeruginosa ATCC 15442", "format": "cell-based, Pseudomonas aeruginosa", "details": "crystal violet", "method": "Sub-MIC concentrations of natural extracts and synthetic peptides were tested to evaluate their interference with the growth as a sessile community of S. aureus ATCC 25923, P. aeruginosa ATCC 15442 and C. albicans ATCC 10231, as previously reported. Bacterial strains or fungal strains were incubated in test tubes containing TSB or Sabouraud (5 mL) and 2% v/v glucose at 37 °C for 24 h. Then, a 2.5 μL microbial suspension was added to each well, containing 200 μL of TSB or Sabouraud broth with 2% w/v glucose.. Aliquots of sub-MIC concentrations of natural extracts of P. oceanica or of chemically synthesized peptides were directly added to the wells, and the plates were incubated at 37 °C for 24 h. After biofilm formation, the wells were washed twice with sterile NaCl 0.9% and stained with 200 μL of 0.1% v/v crystal violet solution for 30 min at 37 °C [70]. Excess solution was discharged, and the plates were washed twice using tap water. Lastly, each stained well was processed by adding 200 μL of ethanol to solubilize the dye. The OD was read at a wavelength of 600 nm using a microplate reader (Glomax®-Multi Detection System, Promega s.r.l., Milan, Italy). […] The percentage of biofilm inhibition formation was determined through the following formula: % Inhibition = [(OD growth − OD sample)/OD growth control] × 100. […]"}, "[3]": {"details": "chemically synthesized peptide, maximum tested concentration 250 μg/mL, Mueller Hinton II, triplicate"}}, "note": "Like-named read-outs stand apart in the source and are kept apart here. Where no end group is shown, it is not given here."}
{"sequence": "EETFHGVL [Peptide #2, natural peptide EETFHGVL from green leaves extract, chemically synthesized]", "values": [{"measurement": "Activity on HepG2 cells (in words)", "setting": "HepG2 cells", "result": "lack of activity"}]}
{"sequence": "GEFALCKATK [Peptide #7d]", "values": [{"measurement": "MIC", "setting": "S. aureus ATCC 25923; ATCC 25923, 24 h", "result": "> 250", "unit": "µg/mL"}, {"measurement": "MIC", "setting": "P. aeruginosa ATCC 15442 [1]; ATCC 15442, 24 h", "result": "> 250", "unit": "µg/mL"}, {"measurement": "MIC", "setting": "E. coli ATCC 25922; ATCC 25922, 24 h", "result": "> 250", "unit": "µg/mL"}, {"measurement": "MIC", "setting": "C. albicans ATCC 10231; ATCC 10231, 24 h", "result": "> 250", "unit": "µg/mL"}, {"measurement": "MIC", "setting": "E. faecalis ATCC 29212; ATCC 29212, 24 h", "result": "> 250", "unit": "µg/mL"}, {"measurement": "IC50 (cell viability)", "setting": "HepG2 cells", "result": 0.108, "unit": "µg/mL"}]}
{"sequence": "GEFALCSAKT [Peptide #7]", "values": [{"measurement": "IC50 (cell viability)", "setting": "HepG2 cells", "result": 0.329, "unit": "µg/mL"}]}
{"sequence": "IVAKVGSA [5d]", "values": [{"measurement": "MIC", "setting": "S. aureus ATCC 25923; [3]", "result": "> 250", "unit": "µg/mL"}, {"measurement": "MIC", "setting": "P. aeruginosa ATCC 15442 [1]; [3]", "result": "> 250", "unit": "µg/mL"}, {"measurement": "MIC", "setting": "E. coli ATCC 25922; [3]", "result": "> 250", "unit": "µg/mL"}, {"measurement": "MIC", "setting": "C. albicans ATCC 10231; chemically synthesized peptide, maximum tested concentration 250 μg/mL, Sabouraud, triplicate", "result": "> 250", "unit": "µg/mL"}, {"measurement": "MIC", "setting": "E. faecalis ATCC 29212; [3]", "result": "> 250", "unit": "µg/mL"}, {"measurement": "Percentage of inhibition of biofilm formation", "setting": "P. aeruginosa ATCC 15442 [2]; maximum tested concentration 200 μg/mL", "result": 57.2, "unit": "%"}, {"measurement": "BIC50", "setting": "P. aeruginosa ATCC 15442 [2]; peptide, AAT Bioquest IC50 calculator", "result": 70.7, "unit": "µg/mL"}]}
{"sequence": "IVASVGSA [Peptide #5, natural peptide IVASVGSA from rhizome extract, chemically synthesized]", "values": [{"measurement": "Activity on HepG2 cells (in words)", "setting": "HepG2 cells", "result": "inability of peptide #5 to exert any biological role"}]}
{"sequence": "RKTFWGVL [Peptide #2d]", "values": [{"measurement": "MIC", "setting": "S. aureus ATCC 25923; ATCC 25923, 24 h", "result": "> 250", "unit": "µg/mL"}, {"measurement": "MIC", "setting": "P. aeruginosa ATCC 15442 [1]; ATCC 15442, 24 h", "result": "> 250", "unit": "µg/mL"}, {"measurement": "MIC", "setting": "E. coli ATCC 25922; ATCC 25922, 24 h", "result": "> 250", "unit": "µg/mL"}, {"measurement": "MIC", "setting": "C. albicans ATCC 10231; ATCC 10231, 24 h", "result": "> 250", "unit": "µg/mL"}, {"measurement": "MIC", "setting": "E. faecalis ATCC 29212; ATCC 29212, 24 h", "result": "> 250", "unit": "µg/mL"}]}
{"sequence": "WVVRLNAPGKK [Peptide #3d]", "values": [{"measurement": "MIC", "setting": "S. aureus ATCC 25923; ATCC 25923, 24 h", "result": "> 250", "unit": "µg/mL"}, {"measurement": "MIC", "setting": "P. aeruginosa ATCC 15442 [1]; ATCC 15442, 24 h", "result": "> 250", "unit": "µg/mL"}, {"measurement": "MIC", "setting": "E. coli ATCC 25922; ATCC 25922, 24 h", "result": "> 250", "unit": "µg/mL"}, {"measurement": "MIC", "setting": "C. albicans ATCC 10231; ATCC 10231, 24 h", "result": "> 250", "unit": "µg/mL"}, {"measurement": "MIC", "setting": "E. faecalis ATCC 29212; ATCC 29212, 24 h", "result": "> 250", "unit": "µg/mL"}, {"measurement": "IC50 (cell viability)", "setting": "HepG2 cells", "result": 0.41, "unit": "µg/mL"}]}
